Measured values: patent publication EP4778531A1, “MUSCLE RELAXANT ANTAGONIST FOR REVERSAL FOR BENZYLISOQUINOLINE MUSCLE RELAXANT” (priority 2023, dated 2025)

What was measured:
[1] = tested on: Inflammation-Related Factors; format: in vivo, ICR mice; conditions: Adamgammadex sodium 1 g/kg, Sugammadex sodium 1 mg/kg, Neostigmine 0.3 mg/kg
Experimental: An antibody array is a type of protein chip characterized by miniaturization, integration, and high throughput. It can be used to detect the expression abundance of proteins related to a specific physiological or pathological process. The principle involves arranging capture antibodies on a membrane or glass slide, incubating with the sample, adding biotin-labeled antibodies against the target proteins, and finally using HRP-streptavidin or fluorescein-streptavidin to detect the chip signal. Signals are detected using chemiluminescence or HiLyte™ Fluor 555-streptavidin.
In this experiment, ICR mice were randomly divided into a blank group, Adamgammadex sodium (1 g/kg) group, Sugammadex sodium (1 mg/kg) group, and Neostigmine (0.3 mg/kg) group, with 2 mice per group. Mice in each group given the corresponding dosage of compound via the tail vein once daily for 5 consecutive days. On the last day after administration, plasma from the 2 animals per group was mixed and detected using the Ary028 immune chip kit. Specific detection steps were as follows: • (1) Sample volume determination: 200 µL serum sample per Array unit. (2) Blocking protein chip: Each membrane was blocked with 2 mL of corresponding Array Buffer, incubated on a shaker for 1 hour. (3) Sample processing: Samples were diluted with corresponding Array Buffer to a volume of 1.5 mL per membrane, the corresponding Array unit was added, and incubated overnight with the Array protein membrane at 4°C. (4) Membranes were washed three times with corresponding Wash buffer, then diluted detection antibody was added and incubated at room temperature for 1 h. (5) Membranes were washed three times with corresponding Wash buffer, streptavidin-HRP was added and incubated for 30min at room temperature with shaking. (6) Membranes were washed three times with corresponding Wash buffer, 1 mL of chemiluminescent reagent was added to each well, and developed on a chemiluminescence imager. (7) Fluorescence intensity was used to represent the relative concentration of the corresponding protein.

[2] = tested on: neuromuscular blockade induced by atracurium; conditions: H. D. de Boer et al., British Journal of Anaesthesia 2006; cited from earlier work
[3] = such as mivacurium, atracurium, and cisatracurium; background; cited from earlier work
[4] = ICR mice, tail vein once daily for 5 days, pooled plasma of 2 mice, N.D. = below minimum detection limit

With O=C([O-])CCSC[C@H]1O[C@@H]2O[C@H]3[C@H](O)[C@@H](O)[C@@H](O[C@H]4[C@H](O)[C@@H](O)[C@@H](O[C@H]5[C@H](O)[C@@H](O)[C@@H](O[C@H]6[C@H](O)[C@@H](O)[C@@H](O[C@H]7[C@H](O)[C@@H](O)[C@@H](O[C@H]8[C@H](O)[C@@H](O)[C@@H](O[C@H]9[C@H](O)C(O)[C@@H](O[C@H]1[C@H](O)[C@H]2O)O[C@@H]9CSCCC(=O)[O-])O[C@@H]8CSCCC(=O)[O-])O[C@@H]7CSCCC(=O)[O-])O[C@@H]6CSCCC(=O)[O-])O[C@@H]5CSCCC(=O)[O-])O[C@@H]4CSCCC(=O)[O-])O[C@@H]3CSCCC(=O)[O-].[Na+].[Na+].[Na+].[Na+].[Na+].[Na+].[Na+].[Na+] (stereo partly drawn) [Compound 7, Sugammadex sodium] the “Fluorescence Intensity BAFF/BlyS/ TNFSF13B (B cell activation factor)” value [1, 4] was 13375.34, the “Fluorescence Intensity C-Reactive Protein/CRP (C-reactive protein)” value [1, 4] was 8550.52 and the “Fluorescence Intensity CCL21/6Ckine (Lymphocyte chemokine CCL21)” value [1, 4] was 27027.2. The “Fluorescence Intensity CCL22/MDC (Macrophage-derived chemokine)” value [1, 4] was 2578.89, the “Fluorescence Intensity CD160 (Leukocyte differentiation antigen160)” value [1, 4] was 187.67 and the “Fluorescence Intensity CXCL9/MIG (IFN-γ-induced monocyte factor)” value [1, 4] was 3617.92. For the same molecule, the “Fluorescence Intensity Chemerin (Chemotactic factor)” value [1, 4] was 4629.24, the “Fluorescence Intensity IL-7 (Interleukin-7)” value [1, 4] was 1922.84 and the “Fluorescence Intensity IL-11 (Interleukin-11)” value [1, 4] was 216.49. For the same molecule, the “Fluorescence Intensity IL-12p40 (Interleukin IL-12p40)” value [1, 4] was 1049.34, the “Fluorescence Intensity IL-28 (Interleukin-28)” value [1, 4] was 2440.68 and the “Fluorescence Intensity IL-33 (Interleukin-33)” value [1, 4] was 592.77. The “Fluorescence Intensity M-CSF (Macrophage colony-stimulating factor)” value [1, 4] was 5871.05, the “Fluorescence Intensity Myeloperoxidase (Mastoperoxidase)” value [1, 4] was 4645.21 and the “Fluorescence Intensity Pentraxin 3 (Pertussis toxin 3)” value [1, 4] was 4555.53. For the same molecule, the “Fluorescence Intensity TIM-1/KIM-1/ HAVCR (Hepatitis A virus receptor-1 (inflammation/ immunity))” value [1, 4] was 1023.1, the “impact on inducing immune inflammation in mice (in words)” value ([1]; conclusion from Tables 3 and 4) was “second-lowest impact” and the “Fluorescence Intensity M-CSF (Macrophage lysis-stimulating factor)” value ([1]; second M-CSF line of Table 4, ICR mice, tail vein once daily for 5 days, pooled plasma of 2 mice, N.D. = below minimum detection limit) was 5871.05. For the same molecule, the “Fluorescence Intensity Pentraxin 3/TSG-14 (Pertussis toxin 3)” value ([1]; second Pentraxin 3 line of Table 4, ICR mice, tail vein once daily for 5 days, pooled plasma of 2 mice, N.D. = below minimum detection limit) was 4555.53, the “reversing the neuromuscular blockade induced by atracurium (in words)” value [2] was “ineffective” and the “binding to succinylcholine or benzylisoquinoline-type neuromuscular blocking agents (in words)” value [3] was “does not bind”.
